Key:
[1] = system: bone marrow cells; test: Cytokine applied in place of the TLR agonist, formation of M-MDSCs and dendritic cells; format: cell-based; settings: day 6; for M-MDSCs are formed and differentiation into dendritic cells is inhibited: 3 method
Source text: On day 6 of culture, it was identified whether M-MDSCs and dendritic cells are formed.

[2] = system: bone marrow cells; test: MDSC subtypes by Gr-1, Ly6G and Ly6C expression; format: cell-based, C57BL/6 mice
Source text: As illustrated in Example 3, it can be seen that the cells, which have been induced by differentiation from bone marrow cells after TLR stimulation according to the 3 method in Example 1, are MDSCs. On the other hand, subtypes of the MDSCs may be divided into monocytic-MDSCs (M-MDSCs) and granulocytic-MDSCs (G-MDSCs). Gr-1^high cells mostly correspond to G-MDSCs, and Gr-1^low cells may be classified as M-MDSCs.
Thus, for MDSCs harvested after performing culture for 6 days with a Gr-1 antibody using the 3 method in Example 1, an expression level of Gr-1 was checked. The results are illustrated in FIGS. 9 and 10.
Furthermore, in order to accurately classify subtypes of MDSCs, their expression patterns were identified using Ly6G and Ly6C antibodies.

[3] = system: bone marrow cells; test: Ly6G/Ly6C expression patterns in C57BL/6 and MyD88^−/− mice; format: cell-based, C57BL/6 mice and C57BL/6 MyD88^−/− mice; settings: MyD88 dependence study, 3 method
Method: In order to identify whether differentiation into respective MDSCs' subtypes is induced in a MyD88-dependent manner, C57BL/6 mice and C57BL/6 MyD88^−/− mice were treated in the same manner as the 3 method in Example 1, and then expression patterns of Ly6G and Ly6C were identified in the same manner as in Example 4 (FIG. 13).

[4] = system: bone marrow cells; test: Phenotypic analysis of cells induced by TLR stimulation; format: cell-based, C57BL/6 mice; settings: 3 method, culture for 6 days
Source text: The results obtained by analyzing phenotypes of cells harvested after treating bone marrow cells with a TLR agonist in the same manner as the 3 method in Example 1 and performing culture for 6 days are illustrated in FIGS. 7 and 8. […] From these expression patterns, it was predictable that the cells induced by differentiation from the bone marrow cells are myeloid-derived suppressor cells (MDSCs).

[5] = system: bone marrow cells; test: Differentiation of bone marrow cells with GM-CSF, proportion of CD11c+ cells; format: cell-based, C57BL/6 mice; settings: for capacity of inhibiting dendritic cells (proportion of CD11c^+ cells): 50 ng/ml, 3 method (initiation of differentiation and day 3), day 6 of culture
Method: Whole bone marrow cells in the femurs were harvested from C57BL/6 mice using a bone marrow harvesting needle. The harvested bone marrow cells were washed with PBS and red blood cells (RBCs) were removed using a red blood cell lysis buffer (Sigma Aldrich). The bone marrow cells were dispensed in a 6-well plate (1×10^6 cells/ml; 2 ml/well) and cultured, under a condition of 5% CO2 and 37° C., in complete RPMI 1640 (c-RPMI 1640) medium supplemented with 100 U/mL of penicillin/streptomycin (Lonza, Basel, Switzerland), 10% fetal bovine serum (Lonza), 50 μM mercaptoethanol (Lonza), 0.1 mM non-essential amino acids (Lonza), and GM-CSF (20 ng/mL). […] On day 3 of culture, the bone marrow cells and 1 ml of c-RPMI 1640 medium were added to each well. On day 6 of culture, the cells were collected and stained with Fluorescein-conjugated CD11c mAb to measure a proportion of CD11c^+ cells. […] In addition, in a case where the 3 method is used, proportions of CD11c^+ cells were checked for respective treatment concentrations of each TLR agonist (TLR2 agonist (Pam3)—1, 10, and 50 ng/ml; TLR3 agonist (Poly I:C)—10, 100, and 500 ng/ml; TLR4 agonist (LPS)—1, 10, and 50 ng/ml; TLR7 agonist (imiquimod)—1, 10, and 50 ng/ml; TLR9 agonist (CPG:ODN)—1, 10, and 50 ng/ml).

[6] = system: bone marrow cells; test: Proportion of CD11c+MHC-II+ cells after TLR agonist treatment, wild type; format: cell-based; settings: C57BL/6 mice, 3 method
Method: Additionally, in order to identify whether an effect of inhibiting differentiation into dendritic cells is induced in a MyD88-dependent manner, C57BL/6 mice and C57BL/6 MyD88^−/− mice were treated with a TLR agonist in the same manner as the 3 method in Example 1, to induce differentiation, and then a proportion of CD11c^+MHC-II^+ cells was measured. The results are illustrated in FIGS. 5 and 6.

[7] = system: bone marrow cells; test: IL-6 or IL-6 receptor blocker together with TLR9 agonist, proportions of MDSCs and dendritic cells; format: cell-based; settings: applied together with a TLR9 agonist, 3 method, day 6
Source text: In order to evaluate differentiation into M-MDSCs caused by IL-6 and functions of the M-MDSCs, recombinant IL-6 or an IL-6 receptor blocker was applied together with a TLR9 agonist using the 3 method in Example 1, and then the cells were harvested on day 6 of culture. Among the cells harvested according to the respective treatments, proportions of MDSCs and dendritic cells were checked.

[8] = system: M-MDSCs; test: Secondary differentiation into dendritic cells of M-MDSCs induced with TLR9 agonist plus IL-6 or IL-6 receptor blocker; format: cell-based; settings: GM-CSF 5 days; compared with only TLR9 agonist
Method: In order to identify whether the M-MDSCs induced according to respective treatments as described above are secondarily differentiated into dendritic cells, culture was performed for 5 days in the same manner as the method of inducing differentiation into dendritic cells in Example 8.

[9] = system: bone marrow cells; test: Cytokines induced at early differentiation stages after TLR stimulation; format: cell-based; settings: for cytokines induced at early differentiation stages: 8, 18, and 36 hours after stimulation with TLR agonist; for IFN-γ, IL-15, IL-1β, TGF-β, IL-4, IL-12p70, IL-10, and FLT2L induction: not shown by data
Method: Hereinafter, experiments were conducted assuming that for respective M-MDSCs induced by differentiation upon treatment with a TLR2 or TLR9 agonist, differences in phenotype, T cell inhibition capacity, regulatory T cell formation capacity, and differentiation into dendritic cells are due to different cytokine secretion induced by each TLR stimulation. Therefore, cytokines induced at early differentiation stages (8, 18, and 36 hours after stimulation with TLR agonist) after treatment of bone marrow cells with a TLR2 or TLR9 agonist were analyzed.

[10] = system: bone marrow cells; test: TLR9 agonist on bone marrow cells of type I IFN receptor knockout mice; format: cell-based; settings: 3 method, day 6
Method: Finally, in order to accurately check the function of type I IFN, bone marrow cells harvested from wild-type mice and type I IFN receptor knockout mice were treated with a TLR9 agonist using the 3 method in Example 1; and on day 6 of culture, degree of formation of PDCA-1^+ M-MDSCs and dendritic cells was evaluated.

[11] = system: Ly6C^+ M-MDSCs; test: Ly6C+ M-MDSCs treated with GM-CSF, proportions of CD11c+ cells; format: cell-based; settings: Ly6C^+ M-MDSCs of day 6, GM-CSF for 3 days
Method: Then, GM-CSF was applied in the same manner as in Example 8 and culture was performed for 3 days. Subsequently, proportions of CD11c^+ cells were checked for the respective treatments.
Then, on day 6 of culture, only Ly6C^+ M-MDSCs were collected. Subsequently, GM-CSF was applied in the same manner as in Example 8 and culture was performed for 3 days. Then, proportions of CD11c^+ cells were checked for the respective treatments.

## CCCCC[C@H](O)/C=C/[C@H]1[C@H](O)CC(=O)[C@@H]1C/C=C\CCCC(=O)O [PGE2]
[1]
  M-MDSCs are formed and differentiation into dendritic cells is inhibited: in a concentration-dependent manner

## CC(C)Cn1cnc2c(N)nc3ccccc3c21 [TLR7 agonist, imiquimod]
[2]; 3 method, 6 days
  Gr-1^high MDSCs: induced at a high level
[2]; Ly6G and Ly6C antibodies
  Ly6C^high M-MDSCs (X4 cells): induced
[3]
  Ly6C^high M-MDSCs (X4 cells): induced
[4]
  B220, another marker of pDCs: no significant difference
  PDCA-1, a marker of plasmacytoid dendritic cells: highly induced
[5]
  capacity of inhibiting dendritic cells (proportion of CD11c^+ cells): strongly induced
[6]
  proportion of CD11c^+MHC-II^+ cells: decreased

## IFN-α
[1]
  M-MDSCs are formed and differentiation into dendritic cells is inhibited: in a concentration-dependent manner

## IL-6: recombinant IL-6 protein
[7]
  differentiation into PDCA-1^+ M-MDSCs: increased
  differentiation into dendritic cells: further decreased
[8]
  degree of differentiation of M-MDSCs into dendritic cells: remarkably decreased
[1]
  M-MDSCs are formed and differentiation into dendritic cells is inhibited: in a concentration-dependent manner
  M-MDSCs having the phenotype CD11c^−CD11b^+Ly6G^− Ly6C^+PDCA-1^−: induced in large quantities

## ODN1826 [TLR9 agonist]
[2]; 3 method, 6 days
  Gr-1^high MDSCs: induced at a high level
[2]; Ly6G and Ly6C antibodies
  Ly6C^high M-MDSCs (X4 cells): induced
[9]
  cytokines induced at early differentiation stages: TNF-α, IL-6, IFN-α, and IFN-β
  IFN-γ, IL-15, IL-1β, TGF-β, IL-4, IL-12p70, IL-10, and FLT2L induction: not induced
[10]
  induction of MDSCs: not induced
[3]
  Ly6C^high M-MDSCs (X4 cells): induced
[4]
  B220, another marker of pDCs: no significant difference
  PDCA-1, a marker of plasmacytoid dendritic cells: highly induced
[5]
  capacity of inhibiting dendritic cells (proportion of CD11c^+ cells): strongly induced
[6]
  proportion of CD11c^+MHC-II^+ cells: decreased

## Pam3CSK4 [TLR2 agonist]
[2]; 3 method, 6 days
  Gr-1^low MDSCs: induced at a high level
[2]; Ly6G and Ly6C antibodies
  Ly6C^int M-MDSCs (X3 cells): induced
[11]
  differentiation into dendritic cells (proportions of CD11c^+ cells): hardly induced
[9]
  cytokines induced at early differentiation stages: TNF-α, IL-6, and PGE2
  IFN-γ, IL-15, IL-1β, TGF-β, IL-4, IL-12p70, IL-10, and FLT2L induction: not induced
[9]; as compared with a case of being treated with the TLR9 agonist
  IL-6 induction: remarkably induced
[3]
  Ly6C^int M-MDSCs (X3 cells): induced
[5]
  capacity of inhibiting dendritic cells (proportion of CD11c^+ cells): strongly induced
[6]
  proportion of CD11c^+MHC-II^+ cells: decreased

## poly I:C [TLR3 agonist]
[5]; 3 method, 1, 10, 50 ng/ml (TLR3 agonist 10, 100, 500 ng/ml)
  inhibition of differentiation into dendritic cells (proportions of CD11c^+ cells for respective treatment concentrations): not observed
